PubChem BioAssay AID2060337 (Molecular Pharmacology Branch, DTP, NCI, 2025)
Values joined by “and” are separate entries in the source; they are usually repeats but may differ in a detail not shown here. Identical values can stand only once.

Tested on: 832693-133-R-J1-PDC multi-cell spheroids, viability
Assay: Anticancer human tumor 832693-133-R-J1-PDC patient-derived head and neck squamous carcinoma cell line growth inhibition [IpAb]
Settings: for viability, T/C: stronger effect = lower value
How it was run: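 Multi-cell spheroids of 60% tumour cells, 25% HUVEC and 15% MSC in ultra-low-attachment U-bottom wells, treated with agents combined with ipatasertib or abemaciclib. Half-log ranges top out near clinical Cmax, or 10 microM when Cmax is unknown.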

[1] = curve of first compound, second compound 0.1 µM
[2] = curve of first compound, second compound 0.316 µM
[3] = curve of first compound, second compound 1 µM
[4] = curve of first compound, second compound 3.16 µM
[5] = curve of first compound, second compound 10 µM
[6] = second compound 0.1 µM, first compound 0.0316 µM
[7] = second compound 0.1 µM, first compound 0.1 µM
[8] = second compound 0.1 µM, first compound 0.316 µM
[9] = second compound 0.1 µM, first compound 1 µM
[10] = second compound 0.1 µM, first compound 3.16 µM
[11] = second compound 0.1 µM, first compound 10 µM
[12] = second compound 0.316 µM, first compound 0.0316 µM
[13] = second compound 0.316 µM, first compound 0.1 µM
[14] = second compound 0.316 µM, first compound 0.316 µM
[15] = second compound 0.316 µM, first compound 1 µM
[16] = second compound 0.316 µM, first compound 3.16 µM
[17] = second compound 0.316 µM, first compound 10 µM
[18] = second compound 1 µM, first compound 0.0316 µM
[19] = second compound 1 µM, first compound 0.1 µM
[20] = second compound 1 µM, first compound 0.316 µM
[21] = second compound 1 µM, first compound 1 µM
[22] = second compound 1 µM, first compound 3.16 µM
[23] = second compound 1 µM, first compound 10 µM
[24] = second compound 3.16 µM, first compound 0.0316 µM
[25] = second compound 3.16 µM, first compound 0.1 µM
[26] = second compound 3.16 µM, first compound 0.316 µM
[27] = second compound 3.16 µM, first compound 1 µM
[28] = second compound 3.16 µM, first compound 3.16 µM
[29] = second compound 3.16 µM, first compound 10 µM
[30] = second compound 10 µM, first compound 0.0316 µM
[31] = second compound 10 µM, first compound 0.1 µM
[32] = second compound 10 µM, first compound 0.316 µM
[33] = second compound 10 µM, first compound 1 µM
[34] = second compound 10 µM, first compound 3.16 µM
[35] = second compound 10 µM, first compound 10 µM
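Also: spheroids exposed to the drugs for one week before the viability readout.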
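For viability, T/C in this document: 100% = DMSO vehicle control wells.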

With `C=CCn1c(=O)c2cnc(Nc3ccc(N4CCN(C)CC4)cc3)nc2n1-c1cccc(C(C)(C)O)n1` + CC(C)NCC(C(=O)N1CCN(c2ncnc3c2C(C)CC3O)CC1)c1ccc(Cl)cc1 the IC50 [1] was 133 nM, the IC50 [2] was 76.7 nM and the IC50 [3] was 35.8 nM. The IC50 [4] was less than 31.6 nM, the IC50 [5] was 42.9 nM and the viability, T/C [6] was 86%. It also gave a viability, T/C [7] of 58%, a viability, T/C [8] of 25.8% and a viability, T/C [9] of 20.1%. It also gave a viability, T/C [10] of 22.8%, a viability, T/C [11] of 10.4% and a viability, T/C [12] of 66.1%. The viability, T/C [13] was 45.8%, the viability, T/C [14] was 23% and the viability, T/C [15] was 14.6%. The viability, T/C [16] was 14.9%, the viability, T/C [17] was 6.24% and the viability, T/C [18] was 51.7%. For the same compound, the viability, T/C [19] was 35.5%, the viability, T/C [20] was 18.3% and the viability, T/C [21] was 12.9%. The viability, T/C [22] was 11.6%, the viability, T/C [23] was 3.5% and the viability, T/C [24] was 48.5%. For the same compound, the viability, T/C [25] was 36%, the viability, T/C [26] was 25.3% and the viability, T/C [27] was 16.1%. The viability, T/C [28] was 11.9%, the viability, T/C [29] was 3.31% and the viability, T/C [30] was 52.4%. The viability, T/C [31] was 43.2%, the viability, T/C [32] was 26.1% and the viability, T/C [33] was 9.68%. The viability, T/C [34] was 6.52% and the viability, T/C [35] was 1.52%.
For `Cn1cnc2c(F)c(Nc3ccc(Br)cc3Cl)c(C(=O)NOCCO)cc21` + CC(C)NCC(C(=O)N1CCN(c2ncnc3c2C(C)CC3O)CC1)c1ccc(Cl)cc1, the IC50 [1] was 95.2 nM, the IC50 [2] was less than 9.49 nM and the IC50 [3] was less than 9.49 nM. For the same compound, the IC50 [4] was less than 9.49 nM, the IC50 [5] was 160 nM and the viability, T/C (second compound 0.1 µM, first compound 0.00949 µM) was 77%. For the same compound, the viability, T/C (second compound 0.1 µM, first compound 0.03 µM) was 66.9%, the viability, T/C (second compound 0.1 µM, first compound 0.0949 µM) was 45.5% and the viability, T/C (second compound 0.1 µM, first compound 0.3 µM) was 38.7%. The viability, T/C (second compound 0.1 µM, first compound 0.949 µM) was 27.1%, the viability, T/C (second compound 0.1 µM, first compound 3 µM) was 14.7% and the viability, T/C (second compound 0.316 µM, first compound 0.00949 µM) was 49.5%. For the same compound, the viability, T/C (second compound 0.316 µM, first compound 0.03 µM) was 39.9%, the viability, T/C (second compound 0.316 µM, first compound 0.0949 µM) was 33.7% and the viability, T/C (second compound 0.316 µM, first compound 0.3 µM) was 30.6%. The viability, T/C (second compound 0.316 µM, first compound 0.949 µM) was 17.4%, the viability, T/C (second compound 0.316 µM, first compound 3 µM) was 11.2% and the viability, T/C (second compound 1 µM, first compound 0.00949 µM) was 44.3%. The viability, T/C (second compound 1 µM, first compound 0.03 µM) was 32%, the viability, T/C (second compound 1 µM, first compound 0.0949 µM) was 30.4% and the viability, T/C (second compound 1 µM, first compound 0.3 µM) was 17.7%. For the same compound, the viability, T/C (second compound 1 µM, first compound 0.949 µM) was 12.5%, the viability, T/C (second compound 1 µM, first compound 3 µM) was 8.67% and the viability, T/C (second compound 3.16 µM, first compound 0.00949 µM) was 42.9%. It also gave a viability, T/C (second compound 3.16 µM, first compound 0.03 µM) of 35.3%, a viability, T/C (second compound 3.16 µM, first compound 0.0949 µM) of 28.6% and a viability, T/C (second compound 3.16 µM, first compound 0.3 µM) of 22.4%. For the same compound, the viability, T/C (second compound 3.16 µM, first compound 0.949 µM) was 15.8%, the viability, T/C (second compound 3.16 µM, first compound 3 µM) was 11.9% and the viability, T/C (second compound 10 µM, first compound 0.00949 µM) was 64%. It also gave a viability, T/C (second compound 10 µM, first compound 0.03 µM) of 68.1%, a viability, T/C (second compound 10 µM, first compound 0.0949 µM) of 58.7% and a viability, T/C (second compound 10 µM, first compound 0.3 µM) of 38.7%. For the same compound, the viability, T/C (second compound 10 µM, first compound 0.949 µM) was 14.6% and the viability, T/C (second compound 10 µM, first compound 3 µM) was 4.33%.
Work on `Cn1nccc1Nc1nccc(-c2ccn(C(CO)c3ccc(Cl)c(F)c3)c(=O)c2)n1` (configuration not stated) + CC(C)NCC(C(=O)N1CCN(c2ncnc3c2C(C)CC3O)CC1)c1ccc(Cl)cc1 yielded an IC50 [1] of 383 nM, an IC50 [2] of 87.4 nM and an IC50 [3] of 37.1 nM. The IC50 [4] was 46.8 nM, the IC50 [5] was 326 nM and the viability, T/C [6] was 90.9%. It also gave a viability, T/C [7] of 64.3%, a viability, T/C [8] of 55.9% and a viability, T/C [9] of 41.2%. For the same compound, the viability, T/C [10] was 23.1%, the viability, T/C [11] was 21.5% and the viability, T/C [12] was 60.1%. The viability, T/C [13] was 50%, the viability, T/C [14] was 35.2% and the viability, T/C [15] was 27.8%. It also gave a viability, T/C [16] of 19.7%, a viability, T/C [17] of 11.2% and a viability, T/C [18] of 50.7%. For the same compound, the viability, T/C [19] was 43.2%, the viability, T/C [20] was 26.6% and the viability, T/C [21] was 20.9%. For the same compound, the viability, T/C [22] was 14%, the viability, T/C [23] was 7.18% and the viability, T/C [24] was 51.5%. It also gave a viability, T/C [25] of 47.3%, a viability, T/C [26] of 30.6% and a viability, T/C [27] of 19.9%. The viability, T/C [28] was 12.6%, the viability, T/C [29] was 8.87% and the viability, T/C [30] was 56.3%. It also gave a viability, T/C [31] of 59.6%, a viability, T/C [32] of 50.9% and a viability, T/C [33] of 28.7%. For the same compound, the viability, T/C [34] was 17.9% and the viability, T/C [35] was 10.5%.
`CC(C)n1nc(-c2ccc3oc(N)nc3c2)c2c(N)ncnc21` + CC(C)NCC(C(=O)N1CCN(c2ncnc3c2C(C)CC3O)CC1)c1ccc(Cl)cc1 gave an IC50 [1] of 78.9 nM, an IC50 [2] greater than 100 nM and an IC50 [3] greater than 100 nM. It also gave an IC50 [4] greater than 100 nM, an IC50 [5] greater than 100 nM and a viability, T/C (second compound 0.1 µM, first compound 0.000316 µM) of 88.9%. It also gave a viability, T/C (second compound 0.1 µM, first compound 0.001 µM) of 90.7%, a viability, T/C (second compound 0.1 µM, first compound 0.00316 µM) of 82.2% and a viability, T/C (second compound 0.1 µM, first compound 0.01 µM) of 69.3%. For the same compound, the viability, T/C [6] was 61%, the viability, T/C [7] was 47.7% and the viability, T/C (second compound 0.316 µM, first compound 0.000316 µM) was 67.5%. The viability, T/C (second compound 0.316 µM, first compound 0.001 µM) was 73.5%, the viability, T/C (second compound 0.316 µM, first compound 0.00316 µM) was 75.5% and the viability, T/C (second compound 0.316 µM, first compound 0.01 µM) was 88.4%. For the same compound, the viability, T/C [12] was 81%, the viability, T/C [13] was 52.2% and the viability, T/C (second compound 1 µM, first compound 0.000316 µM) was 59.4%. For the same compound, the viability, T/C (second compound 1 µM, first compound 0.001 µM) was 74.5%, the viability, T/C (second compound 1 µM, first compound 0.00316 µM) was 106% and the viability, T/C (second compound 1 µM, first compound 0.01 µM) was 97.2%. For the same compound, the viability, T/C [18] was 71.2%, the viability, T/C [19] was 56.7% and the viability, T/C (second compound 3.16 µM, first compound 0.000316 µM) was 68.9%. The viability, T/C (second compound 3.16 µM, first compound 0.001 µM) was 98.9%, the viability, T/C (second compound 3.16 µM, first compound 0.00316 µM) was 106% and the viability, T/C (second compound 3.16 µM, first compound 0.01 µM) was 69.2%. The viability, T/C [24] was 66.1%, the viability, T/C [25] was 63.9% and the viability, T/C (second compound 10 µM, first compound 0.000316 µM) was 77%. It also gave a viability, T/C (second compound 10 µM, first compound 0.001 µM) of 96.2%, a viability, T/C (second compound 10 µM, first compound 0.00316 µM) of 69.7% and a viability, T/C (second compound 10 µM, first compound 0.01 µM) of 45.4%. The viability, T/C [30] was 53% and the viability, T/C [31] was 51.5%.
In the case of `Cn1ncc(Cl)c1-c1cc(C(=O)NC(CN)Cc2cccc(F)c2)sc1Cl` (configuration not stated), the viability, T/C (compound 0.0316 µM) is reported as 99.5% and 99.8%, the viability, T/C (compound 0.1 µM) is reported as 89.4% and 102% and the viability, T/C (compound 0.316 µM) is reported as 74.4% and 79.5%. The viability, T/C (compound 1 µM) was 73.6% and 68.3%, the viability, T/C (compound 3.16 µM) was 85% and 86% and the viability, T/C (compound 10 µM) was 0.3% and 0.39%. The IC50 (curve of compound) was 5060 nM and 5130 nM.
